In article PMC5428509, “Irreversible inhibition of BTK kinase by a novel highly selective inhibitor CHMFL-BTK-11 suppresses inflammatory response in rheumatoid arthritis model” (Scientific Reports, 2017):

How the values were obtained:
Assay in all cases: biochemical
Parameters in all cases: KinomeScan competition binding panel (DiscoveRx), percent of control at 1 uM
Details in all cases: read-out: Percent Control
ERBB3 = ERBB3 (Homo sapiens, UniProt P21860)
In short: (§1)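 Selectivity profiled across 456 kinases/mutants by KinomeScan binding technology.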

FLT3(N841I) = FLT3(N841I) (Homo sapiens, UniProt P36888, N841I)
In short: as §1

DCAMKL2 = molecular target: T1, DCAMKL2 (Homo sapiens, UniProt Q8N568)
T1 construct: gene DCLK2
T1 sequence (Q8N568 whole entry): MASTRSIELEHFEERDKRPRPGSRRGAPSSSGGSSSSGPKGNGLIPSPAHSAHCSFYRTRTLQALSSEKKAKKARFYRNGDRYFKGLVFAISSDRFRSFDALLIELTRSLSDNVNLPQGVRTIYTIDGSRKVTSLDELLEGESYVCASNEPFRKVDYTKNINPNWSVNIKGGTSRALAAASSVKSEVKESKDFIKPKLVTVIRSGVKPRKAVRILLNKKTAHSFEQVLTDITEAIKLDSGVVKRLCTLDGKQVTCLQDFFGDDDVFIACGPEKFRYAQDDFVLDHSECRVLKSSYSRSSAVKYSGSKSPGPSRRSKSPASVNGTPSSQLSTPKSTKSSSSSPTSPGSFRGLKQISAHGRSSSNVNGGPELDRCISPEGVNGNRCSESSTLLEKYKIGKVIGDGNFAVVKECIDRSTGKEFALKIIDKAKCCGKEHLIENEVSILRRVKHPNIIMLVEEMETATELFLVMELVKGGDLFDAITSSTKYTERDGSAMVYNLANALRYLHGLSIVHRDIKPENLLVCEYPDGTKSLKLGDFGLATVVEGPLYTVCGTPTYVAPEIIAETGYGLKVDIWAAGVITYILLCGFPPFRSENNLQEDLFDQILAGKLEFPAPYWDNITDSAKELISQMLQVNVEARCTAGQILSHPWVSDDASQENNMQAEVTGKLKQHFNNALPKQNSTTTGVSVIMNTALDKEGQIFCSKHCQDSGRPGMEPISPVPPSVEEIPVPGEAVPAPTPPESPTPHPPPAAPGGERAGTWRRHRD
In short: as §1

PIK3CA(E542K) = PIK3CA(E542K) (Homo sapiens, UniProt P42336, E542K)
In short: as §1

PAK6 = PAK6 (Homo sapiens, UniProt Q9NQU5)
In short: as §1

FLT3 = FLT3 (Homo sapiens, UniProt P36888)
In short: as §1

ASK1 = molecular target: T2, ASK1 (Homo sapiens, UniProt Q99683)
T2 construct: gene MAP3K5
In short: as §1

ERK4 = molecular target: T3, ERK4 (Homo sapiens, UniProt P31152)
T3 construct: gene MAPK4
In short: as §1

EGFR(L858R,T790M) = EGFR(L858R,T790M) (Homo sapiens, UniProt P00533, L858R/T790M)
In short: as §1

KIT(D816H) = KIT(D816H) (Homo sapiens, UniProt P10721, D816H)
In short: as §1

CIT = CIT (Homo sapiens, UniProt O14578)
In short: as §1

CDKL2 = CDKL2 (Homo sapiens, UniProt Q92772)
In short: as §1

ABL1-nonphosphorylated = molecular target: T4, ABL1-nonphosphorylated (Homo sapiens, UniProt P00519)
T4 construct: nonphosphorylated
In short: as §1

AKT3 = AKT3 (Homo sapiens, UniProt Q9Y243)
In short: as §1

[1] = molecular target: T5, JAK3(JH1domain-catalytic) (Homo sapiens, UniProt P52333)
T5 construct: JH1domain-catalytic
In short: as §1

MAP4K2 = MAP4K2 (Homo sapiens, UniProt Q12851)
Chain of MAP4K2 (Q12851 whole entry): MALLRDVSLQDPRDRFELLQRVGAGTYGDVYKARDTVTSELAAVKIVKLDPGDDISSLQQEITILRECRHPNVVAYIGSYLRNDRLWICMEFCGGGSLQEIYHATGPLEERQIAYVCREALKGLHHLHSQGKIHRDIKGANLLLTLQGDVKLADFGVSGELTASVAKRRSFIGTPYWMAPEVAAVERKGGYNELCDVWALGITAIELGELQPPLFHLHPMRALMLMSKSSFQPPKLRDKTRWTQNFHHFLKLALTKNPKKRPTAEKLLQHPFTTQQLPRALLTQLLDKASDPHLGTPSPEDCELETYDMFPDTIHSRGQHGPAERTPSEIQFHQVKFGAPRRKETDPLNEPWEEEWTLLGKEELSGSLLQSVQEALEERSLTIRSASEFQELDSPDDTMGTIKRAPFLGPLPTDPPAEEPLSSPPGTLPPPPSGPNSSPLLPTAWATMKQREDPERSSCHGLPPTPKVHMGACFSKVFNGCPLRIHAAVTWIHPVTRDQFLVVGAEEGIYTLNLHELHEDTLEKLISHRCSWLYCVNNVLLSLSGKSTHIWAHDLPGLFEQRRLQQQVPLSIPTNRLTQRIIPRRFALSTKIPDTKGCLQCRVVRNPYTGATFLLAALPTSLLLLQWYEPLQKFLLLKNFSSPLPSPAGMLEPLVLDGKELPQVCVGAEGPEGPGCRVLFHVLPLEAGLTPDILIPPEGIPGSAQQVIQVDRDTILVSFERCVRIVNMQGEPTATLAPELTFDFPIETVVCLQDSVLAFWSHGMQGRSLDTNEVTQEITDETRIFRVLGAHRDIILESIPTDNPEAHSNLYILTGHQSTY
In short: as §1

AURKA = AURKA (Homo sapiens, UniProt O14965)
In short: as §1

MEK1 = molecular target: T6, MEK1 (Homo sapiens, UniProt Q02750)
T6 construct: gene MAP2K1
In short: as §1

EGFR = EGFR (Homo sapiens, UniProt P00533)
Chain of EGFR (P00533 whole entry): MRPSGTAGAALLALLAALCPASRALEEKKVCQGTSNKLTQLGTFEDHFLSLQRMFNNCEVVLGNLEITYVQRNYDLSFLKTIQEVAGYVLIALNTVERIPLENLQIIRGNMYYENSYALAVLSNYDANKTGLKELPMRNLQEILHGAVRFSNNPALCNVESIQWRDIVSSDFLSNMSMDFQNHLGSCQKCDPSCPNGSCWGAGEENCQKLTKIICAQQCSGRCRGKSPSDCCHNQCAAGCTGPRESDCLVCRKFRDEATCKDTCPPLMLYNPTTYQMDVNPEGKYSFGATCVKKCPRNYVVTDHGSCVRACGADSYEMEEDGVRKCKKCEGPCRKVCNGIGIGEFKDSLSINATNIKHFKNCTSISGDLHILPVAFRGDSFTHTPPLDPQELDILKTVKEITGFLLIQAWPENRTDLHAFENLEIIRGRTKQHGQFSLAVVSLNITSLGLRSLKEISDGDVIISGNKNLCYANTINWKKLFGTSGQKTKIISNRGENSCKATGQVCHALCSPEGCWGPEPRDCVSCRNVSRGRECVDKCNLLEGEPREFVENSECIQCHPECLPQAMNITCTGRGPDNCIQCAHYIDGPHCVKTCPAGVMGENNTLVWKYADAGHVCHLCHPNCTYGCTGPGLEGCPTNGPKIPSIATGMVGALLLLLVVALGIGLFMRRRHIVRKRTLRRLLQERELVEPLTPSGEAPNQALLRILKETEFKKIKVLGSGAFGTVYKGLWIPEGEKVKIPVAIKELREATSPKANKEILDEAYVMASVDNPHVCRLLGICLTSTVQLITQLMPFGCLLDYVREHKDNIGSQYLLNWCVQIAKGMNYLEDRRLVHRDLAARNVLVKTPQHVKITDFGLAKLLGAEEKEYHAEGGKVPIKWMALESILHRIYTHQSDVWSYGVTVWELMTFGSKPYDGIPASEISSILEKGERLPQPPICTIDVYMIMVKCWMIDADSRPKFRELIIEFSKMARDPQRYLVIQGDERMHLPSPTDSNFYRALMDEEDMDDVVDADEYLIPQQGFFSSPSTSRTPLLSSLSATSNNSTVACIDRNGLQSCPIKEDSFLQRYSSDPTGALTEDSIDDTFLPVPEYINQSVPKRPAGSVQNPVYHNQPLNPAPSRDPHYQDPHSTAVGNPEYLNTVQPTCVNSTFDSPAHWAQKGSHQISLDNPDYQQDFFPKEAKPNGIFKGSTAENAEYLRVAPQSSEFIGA
In short: as §1

CDK11 = molecular target: T7, CDK11 (Homo sapiens, UniProt Q9BWU1)
T7 construct: gene CDK19
In short: as §1

STK35 = STK35 (Homo sapiens, UniProt Q8TDR2)
In short: as §1

FGFR3 = FGFR3 (Homo sapiens, UniProt P22607)
In short: as §1

DRAK2 = molecular target: T8, DRAK2 (Homo sapiens, UniProt O94768)
T8 construct: gene STK17B
In short: as §1

NEK1 = NEK1 (Homo sapiens, UniProt Q96PY6)
In short: as §1

TAOK3 = TAOK3 (Homo sapiens, UniProt Q9H2K8)
Chain of TAOK3 (Q9H2K8 whole entry): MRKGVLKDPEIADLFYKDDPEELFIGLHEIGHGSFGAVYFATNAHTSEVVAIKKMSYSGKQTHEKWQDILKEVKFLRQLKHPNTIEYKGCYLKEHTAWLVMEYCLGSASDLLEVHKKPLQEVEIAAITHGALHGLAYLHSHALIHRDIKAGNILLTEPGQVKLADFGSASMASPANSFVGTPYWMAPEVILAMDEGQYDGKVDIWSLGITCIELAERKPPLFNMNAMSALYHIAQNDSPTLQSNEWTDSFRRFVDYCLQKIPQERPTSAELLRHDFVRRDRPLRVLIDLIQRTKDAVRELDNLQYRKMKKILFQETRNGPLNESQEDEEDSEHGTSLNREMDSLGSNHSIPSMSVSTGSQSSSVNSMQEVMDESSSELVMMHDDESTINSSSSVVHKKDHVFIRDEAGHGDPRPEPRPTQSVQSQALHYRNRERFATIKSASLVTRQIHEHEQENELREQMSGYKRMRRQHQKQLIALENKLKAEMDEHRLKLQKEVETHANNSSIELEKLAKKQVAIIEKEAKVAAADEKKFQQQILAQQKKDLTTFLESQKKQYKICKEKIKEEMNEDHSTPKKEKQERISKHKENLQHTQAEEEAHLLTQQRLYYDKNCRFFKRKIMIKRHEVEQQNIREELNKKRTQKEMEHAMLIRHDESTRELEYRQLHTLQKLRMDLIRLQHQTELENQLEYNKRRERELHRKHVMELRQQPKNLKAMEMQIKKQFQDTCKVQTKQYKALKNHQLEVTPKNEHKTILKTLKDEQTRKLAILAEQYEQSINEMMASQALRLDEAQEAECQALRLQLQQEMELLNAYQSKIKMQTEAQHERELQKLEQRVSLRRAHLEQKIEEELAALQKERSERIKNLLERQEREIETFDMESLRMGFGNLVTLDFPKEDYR
In short: as §1

Chain of ERBB3 (P21860 whole entry): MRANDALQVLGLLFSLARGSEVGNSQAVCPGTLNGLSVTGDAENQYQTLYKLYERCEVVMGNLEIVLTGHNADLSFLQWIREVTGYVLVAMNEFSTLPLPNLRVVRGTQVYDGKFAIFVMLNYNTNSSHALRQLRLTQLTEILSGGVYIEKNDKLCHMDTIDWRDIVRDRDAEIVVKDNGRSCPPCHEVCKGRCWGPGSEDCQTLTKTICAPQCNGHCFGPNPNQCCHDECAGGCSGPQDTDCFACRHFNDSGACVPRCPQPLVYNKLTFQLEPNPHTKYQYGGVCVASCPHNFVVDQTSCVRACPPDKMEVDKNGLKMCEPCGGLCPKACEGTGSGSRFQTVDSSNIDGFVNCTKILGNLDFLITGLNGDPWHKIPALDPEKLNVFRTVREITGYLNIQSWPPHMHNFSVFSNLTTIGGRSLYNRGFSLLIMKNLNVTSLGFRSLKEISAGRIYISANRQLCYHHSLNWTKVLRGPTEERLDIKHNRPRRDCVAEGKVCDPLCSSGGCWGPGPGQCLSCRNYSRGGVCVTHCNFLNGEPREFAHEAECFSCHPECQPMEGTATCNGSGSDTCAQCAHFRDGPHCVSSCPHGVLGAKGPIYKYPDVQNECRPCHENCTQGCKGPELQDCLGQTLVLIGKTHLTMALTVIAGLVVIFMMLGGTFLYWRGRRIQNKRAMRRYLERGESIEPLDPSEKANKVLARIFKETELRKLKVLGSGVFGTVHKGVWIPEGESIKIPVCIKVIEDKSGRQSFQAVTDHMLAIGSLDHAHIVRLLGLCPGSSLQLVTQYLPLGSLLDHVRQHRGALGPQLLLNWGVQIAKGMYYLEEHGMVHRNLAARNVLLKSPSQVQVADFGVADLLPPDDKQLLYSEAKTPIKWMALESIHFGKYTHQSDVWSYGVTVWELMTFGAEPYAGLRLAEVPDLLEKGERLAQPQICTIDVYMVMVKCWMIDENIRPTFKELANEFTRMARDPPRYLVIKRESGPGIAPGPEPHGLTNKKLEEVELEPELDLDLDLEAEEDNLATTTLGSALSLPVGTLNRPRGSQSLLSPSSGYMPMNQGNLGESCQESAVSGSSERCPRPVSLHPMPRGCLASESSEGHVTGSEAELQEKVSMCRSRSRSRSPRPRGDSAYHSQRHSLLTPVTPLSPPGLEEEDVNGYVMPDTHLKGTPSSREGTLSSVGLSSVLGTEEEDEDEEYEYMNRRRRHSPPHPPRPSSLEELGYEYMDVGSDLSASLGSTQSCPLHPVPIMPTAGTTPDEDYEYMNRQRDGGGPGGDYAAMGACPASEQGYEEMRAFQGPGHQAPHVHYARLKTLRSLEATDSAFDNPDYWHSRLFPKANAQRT

## C=CC(=O)Nc1cc(-n2c(=O)ccc3cnc4ccc(-n5cccn5)cc4c32)ccc1C [CHMFL-BTK-11]
ERBB3
  remaining binding at 1 µM: 90%
FLT3(N841I)
  remaining binding at 1 µM: 100%
DCAMKL2
  remaining binding at 1 µM: 100%
PIK3CA(E542K)
  remaining binding at 1 µM: 91%
PAK6
  remaining binding at 1 µM: 100%
FLT3
  remaining binding at 1 µM: 100%
ASK1
  remaining binding at 1 µM: 90%
ERK4
  remaining binding at 1 µM: 96%
EGFR(L858R,T790M)
  remaining binding at 1 µM: 42%
KIT(D816H)
  remaining binding at 1 µM: 100%
CIT
  remaining binding at 1 µM: 98%
CDKL2
  remaining binding at 1 µM: 81%
ABL1-nonphosphorylated
  remaining binding at 1 µM: 74%
AKT3
  remaining binding at 1 µM: 100%
[1]
  remaining binding at 1 µM: 5.7%
MAP4K2
  remaining binding at 1 µM: 98%
AURKA
  remaining binding at 1 µM: 71%
MEK1
  remaining binding at 1 µM: 100%
EGFR
  remaining binding at 1 µM: 88%
CDK11
  remaining binding at 1 µM: 89%
STK35
  remaining binding at 1 µM: 100%
FGFR3
  remaining binding at 1 µM: 89%
DRAK2
  remaining binding at 1 µM: 95%
NEK1
  remaining binding at 1 µM: 82%
TAOK3
  remaining binding at 1 µM: 93%
